{
  "source": "patent US20220387276A1",
  "about": "“Composition Comprising Oils, Free Fatty Acids And Squalene” (Clariant International Ltd., priority 2021, published 2022)",
  "assay_type": "physicochemical",
  "experimental": "The oxidative stability at 90° C. was determined according to DIN EN ISO 6886 for the blend of Example 1 and compared with the oxidative stability of squalene.",
  "data": [
    {"smiles": "CC(C)=CCC/C(C)=C/CC/C(C)=C/CC/C=C(\\C)CC/C=C(\\C)CCC=C(C)C", "note": "[squalene]", "values": [
      {"measurement": "Induction time (oxidative stability)", "result": 4.84, "unit": "h"}
    ]}
  ]
}
